Laboratory results: publication PMC9025555, “Chiral Recognition R- and RS- of New Antifungal: Complexation/Solubilization/Dissolution Thermodynamics and Permeability Assay” (Pharmaceutics, 2022)
Values after ≈ are worked out from the molar mass of the structure shown.

Columns and labels:
[1] = Phase solubility study (shake-flask) in buffers with 2-HP-β-CD; conditions: for order of the solubility: compared with reported FCZ and L-173; for solubility at 3 days: thermodynamic from solid, solubility in pure buffer solution, pure buffer
Description: An excess amount of the substance was placed in the glass screw-capped vials with the solvent. The vials were stirred in an air thermostat for a certain period of time (a period of 3 days was estimated to be enough for reaching the equilibrium between the solid and the solvent). Then, the saturated solutions were kept in a thermostat in mild conditions no less than 12 h and thereafter centrifuged at a fixed temperature (Biofuge pico, Thermo Electron LED GmbH, Langenselbold, Germany) for 10 min at 12,000 rpm. […] The experimental results were reported as an average of at least three replicated experiments. Temperature uncertainty was ±0.1 K. The sensitivity of UV spectroscopic determinations was characterized by the values of the limit of detection (LOD)/limit of quantification (LOQ).

[2] = design: method as in doi:10.1016/j.molliq.2021.116535; conditions: cited from earlier work
in vitro = in vitro ADME; conditions: pH 7.4, pH 7.4; CD 0.01087 M; 310.15 K; read-out: Permeability Coefficient (Papp)
Description: Permeability coefficients of RS-186 and R-98 were measured through the PermeaPad barrier (PHABIOC, Germany, Espelkamp, www.permeapad.com, accessed on 20 May 2021) of an effective surface area of 0.785 cm^2 in a vertical type of Franz diffusion cell (PermeGear, Inc., Hellertown, PA, USA) with 7 mL volume. PermeaPad is a biomimetic membrane proposed by di Cagno and Bauer-Brandl for the fast screening of the permeability of the marketed drugs and drug-like compounds. In brief, the barrier was mounted between the donor and receptor chambers. The donor chamber was filled with a stock solution of the investigated substance in buffer solution at pH 2.0 or pH 7.4 and was stirred vigorously during the permeability experiment. The receptor compartment contained 1 mL of the respective fresh buffer. The system was thermostated at 310.15 ± 0.1 K. A probe of 0.5 mL was withdrawn every 30 min from the receptor chamber and replaced with an equal amount of the respective fresh buffer. The permeation process followed the reverse dialysis. The withdrawn samples were analyzed in 96-well UV black plate (Costar) via spectrophotometer (Spectramax 190; Molecular devices, Molecular Devices Corporation, California, CA, USA) at the appropriate wavelength. The permeation profiles were plotted as the amount of the permeated drug over the surface area ( dQ/A ) versus the time ( t ). The flux ( J ) was calculated as a slope of permeation profiles according to the equation:(6) J=dQ/A×dt
The apparent permeability coefficient ( Papp ) was calculated by normalizing the flux measured over the concentration of the drug in the donor compartment ( C0 ), as described by the equation:(7) Papp=J/Co
Each permeability experiment was repeated at least 3 times and the average value of Papp was determined.

[3] = cited from earlier work

OC(Cn1cncn1)(Cn1cncn1)c1ccc(F)cc1F [FCZ, fluconazole]
order of the solubility ([1]; pH 2.0): (FCZ) > (RS-186 ≥ R-98) > (L-173) | order of the solubility ([1]; pH 7.4): (FCZ) > (R-98 ≥ RS-186) >> (L-173) | Papp (PermeaPad) [2]: 19 ×10⁻⁶ cm/s

O=C(CN1C(=O)S/C(=C\c2ccc(Cl)cc2)C1=O)N1CCN(CC(O)(Cn2cncn2)c2ccc(F)cc2F)CC1 [L-173, (5Z)-5-[(4-chlorophenyl)methylidene]-3-(2-{4-[2-(2,4-difluorophenyl)-2-hydroxy-3-(1H-1,2,4-triazol-1-yl)propyl]piperazin-1-yl}-2-oxoethyl)-1,3-thiazolidine-2,4-dione, reference compound]
order of the solubility ([1]; pH 2.0): (FCZ) > (RS-186 ≥ R-98) > (L-173) | order of the solubility ([1]; pH 7.4): (FCZ) > (R-98 ≥ RS-186) >> (L-173)

O=C1S/C(=C\c2ccc(Cl)cc2)C(=O)N1CC(O)CN1CCN(CC(O)(Cn2cncn2)c2ccc(F)cc2F)CC1 (stereo not shown) [R-98, (Z)-5-(4-chlorobenzylidene)-3-(3-(4-(2-(2,4-difluorophenyl)-2-hydroxy-3-(1H-1,2,4-triazol-1-yl)propyl)piperazin-1-yl)-2-hydroxypropyl)thiazolidine-2,4-dione]
solubility at 3 days ([1]; pH 2, aqueous buffer, pH 2.0): 620 µM (≈ 384 µg/mL) | solubility at 3 days ([1]; pH 7.4, aqueous buffer, pH 7.4): 18 µM (≈ 11.1 µg/mL) | Papp (in vitro): 1.19 ×10⁻⁶ cm/s

CC(C)Cc1ccc(C(C)C(=O)O)cc1 (stereo not shown) [ibuprofen]
greater solubility of enantiomer against the racemate ([3]; pH 1.5): twice

CC(C)NCC(O)COc1cccc2ccccc12.Cl (stereo not shown) [propranolol HCl]
greater solubility of racemic compound as compared to enantiomer [3]: 3.7 fold
